In patent US20080214530A1, “Photo-Activated Disinfection” (priority 2003, published 2008):

System: caries
Assay: optimum photosensitiser concentration for photo-activated disinfection of caries
Conditions: at 635 nm
Experimental: The concentration of tolonium chloride will depend on the specific application and chosen wavelength. We have determined an optimum at 635 nm for caries of 12 μg/ml. Longer wavelengths and other applications especially periodontal disease where in vivo dilution may occur are likely to need greater concentrations, whereas shorter wavelengths may require reduced concentrations. Preferably, therefore, the concentration should fall within an overall range between 1 and 200 μg/ml. […] The reduction in efficacy as the concentration increases beyond the optimum is thought to be due to the accompanying increasing absorption limiting the light transmission through the treatment zone.

Work on `Cc1cc2nc3ccc(N(C)C)cc3[s+]c2cc1N` [tolonium chloride] yielded an optimum concentration of 12 µg/mL.
